From publication PMC4721548, “Conformational heterogeneity of the Roc domains in C. tepidum Roc–COR and implications for human LRRK2 Parkinson mutations” (Bioscience Reports, 2015)

How the values were obtained:
CtRocCOR [1] = biological target: T1, CtRocCOR (Chlorobaculum tepidum, UniProt Q8KC98); experiment: GTPase activity assay; assay type: biochemical
T1 construct: gene CT1526; RocCOR tandem, AA 412-946, recombinant, homodimer; MTSSL spin-labelled for EPR

CtRocCOR [2] = biological target: T1, CtRocCOR; experiment: DEER pulse EPR inter-spin distance change upon nucleotide binding; settings: 1 mM GppNHp, 150 mM NaCl, 30 mM Tris/HCl, 5 mM MgCl2, pH 7.5, 5% glycerol, 50 K; protein spin-labelled with MTSSL at native Cys600 (C600R1)

T1 sequence (Q8KC98 entry or part of it): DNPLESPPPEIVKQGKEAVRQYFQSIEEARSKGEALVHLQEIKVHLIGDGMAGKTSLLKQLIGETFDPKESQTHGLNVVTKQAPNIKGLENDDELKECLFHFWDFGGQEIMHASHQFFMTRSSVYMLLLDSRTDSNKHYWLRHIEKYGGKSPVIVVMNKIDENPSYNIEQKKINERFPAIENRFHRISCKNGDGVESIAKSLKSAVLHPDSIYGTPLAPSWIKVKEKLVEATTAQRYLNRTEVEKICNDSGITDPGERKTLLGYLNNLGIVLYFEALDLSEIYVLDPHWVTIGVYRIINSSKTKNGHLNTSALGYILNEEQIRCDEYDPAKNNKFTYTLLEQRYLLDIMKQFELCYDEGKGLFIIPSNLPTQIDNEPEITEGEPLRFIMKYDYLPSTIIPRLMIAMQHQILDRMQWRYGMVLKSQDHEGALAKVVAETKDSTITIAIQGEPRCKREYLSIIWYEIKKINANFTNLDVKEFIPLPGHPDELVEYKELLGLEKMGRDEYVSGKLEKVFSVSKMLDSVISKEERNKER

SMILES	GTPase activity assay (CtRocCOR [1])	DEER pulse EPR inter-spin distance change upon nucleotide binding (CtRocCOR [2])
Nc1nc2c(ncn2[C@@H]2O[C@H](COP(=O)(O)OP(=O)(O)OP(=O)(O)O)[C@@H](O)[C@H]2O)c(=O)[nH]1 [GTP]	No significant impairment of GTPase activity by the mutations in comparison with wild-type	–
Nc1nc2c(ncn2[C@@H]2O[C@H](COP(=O)(O)OP(=O)(O)NP(=O)(O)O)[C@@H](O)[C@H]2O)c(=O)[nH]1 [GppNHp]	–	in the presence of GppNHp, GDP·AlFx or GDP (Figure 2c) reveal changes upon nt binding
